PMC4522657, “Identification of a DYRK1A Inhibitor that Induces Degradation of the Target Kinase using Co-chaperone CDC37 fused with Luciferase nanoKAZ” (Scientific Reports, 2015)

Experiments:
Assay in all cases: Kinase panel, CaNDY 1 µM
Type in all cases: biochemical
Settings in all cases: CaNDY 1 µM relative to DMSO
[1] = molecular target: T1, AMPKα1/β1/γ1 (Homo sapiens, UniProt Q13131)
T1 construct: purchased Carna Biosciences
How it was run: (§1)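 Full-length human recombinant kinases, expressed in baculovirus as N-terminal GST fusions and glutathione-purified, were run in an off-chip mobility shift assay. Reactions contained 1% DMSO and ran one hour at room temperature. Inhibition was taken from the product/(product + substrate) ratio against a compound-free control.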

[2] = molecular target: T2, MER (Homo sapiens, UniProt Q12866)
T2 construct: purchased Carna Biosciences
How it was run: as §1

[3] = molecular target: T3, MLK3_Cascade (Homo sapiens, UniProt Q16584)
T3 construct: purchased Carna Biosciences
How it was run: as §1

[4] = molecular target: T4, SGK (Homo sapiens, UniProt O00141)
T4 construct: purchased Carna Biosciences
How it was run: as §1

[5] = molecular target: T5, BRAF_Cascade (Homo sapiens, UniProt P15056)
T5 construct: purchased Carna Biosciences
How it was run: as §1

[6] = molecular target: T6, NuaK2 (Homo sapiens, UniProt Q9H093)
T6 construct: purchased Carna Biosciences
How it was run: as §1

[7] = molecular target: T7, EPHA1 (Homo sapiens, UniProt P21709)
T7 construct: purchased Carna Biosciences
How it was run: as §1

[8] = molecular target: T8, TBK1 (Homo sapiens, UniProt Q9UHD2)
T8 construct: purchased Carna Biosciences
How it was run: as §1

[9] = molecular target: T9, KIT(D816V) (Homo sapiens, UniProt P10721, D816V)
T9 construct: purchased Carna Biosciences
How it was run: as §1

[10] = molecular target: T10, SGK2 (Homo sapiens, UniProt Q9HBY8)
T10 construct: purchased Carna Biosciences
How it was run: as §1

[11] = molecular target: T11, EGFR(d746-750) (Homo sapiens, UniProt P00533, DEL746-750)
T11 construct: purchased Carna Biosciences
How it was run: as §1

[12] = molecular target: T12, FGFR1 (Homo sapiens, UniProt P11362)
T12 construct: purchased Carna Biosciences
How it was run: as §1

[13] = molecular target: T13, TSSK3 (Homo sapiens, UniProt Q96PN8)
T13 construct: purchased Carna Biosciences
How it was run: as §1

[14] = molecular target: T14, FLT3 (Homo sapiens, UniProt P36888)
T14 construct: purchased Carna Biosciences
How it was run: as §1

[15] = molecular target: T15, ARG (Homo sapiens, UniProt P42684)
T15 construct: purchased Carna Biosciences
How it was run: as §1

[16] = molecular target: T16, PAK4 (Homo sapiens, UniProt O96013)
T16 construct: purchased Carna Biosciences
How it was run: as §1

[17] = molecular target: T17, p70S6Kβ (Homo sapiens, UniProt Q9UBS0)
T17 construct: purchased Carna Biosciences
How it was run: as §1

[18] = molecular target: T18, SLK (Homo sapiens, UniProt Q9H2G2)
T18 construct: purchased Carna Biosciences
How it was run: as §1

[19] = molecular target: T19, MAPKAPK2 (Homo sapiens, UniProt P49137)
T19 construct: purchased Carna Biosciences
How it was run: as §1

[20] = molecular target: T20, skMLCK (Homo sapiens, UniProt Q9H1R3)
T20 construct: purchased Carna Biosciences
How it was run: as §1

[21] = molecular target: T21, RET(Y791F) (Homo sapiens, UniProt P07949, Y791F)
T21 construct: purchased Carna Biosciences
How it was run: as §1

[22] = molecular target: T22, CHK1 (Homo sapiens, UniProt O14757)
T22 construct: purchased Carna Biosciences
How it was run: as §1

[23] = molecular target: T23, TNIK (Homo sapiens, UniProt Q9UKE5)
T23 construct: purchased Carna Biosciences
How it was run: as §1

[24] = molecular target: T24, LATS2 (Homo sapiens, UniProt Q9NRM7)
T24 construct: purchased Carna Biosciences
How it was run: as §1

[25] = molecular target: T25, Erk5 (Homo sapiens, UniProt Q13164)
T25 construct: purchased Carna Biosciences
How it was run: as §1

[26] = molecular target: T26, ABL (Homo sapiens, UniProt P00519)
T26 construct: purchased Carna Biosciences
How it was run: as §1

[27] = molecular target: T27, PKR (Homo sapiens, UniProt P19525)
T27 construct: purchased Carna Biosciences
How it was run: as §1

[28] = molecular target: T28, EPHA2 (Homo sapiens, UniProt P29317)
T28 construct: purchased Carna Biosciences
How it was run: as §1

[29] = molecular target: T29, MET(Y1235D) (Homo sapiens, UniProt P08581, Y1235D)
T29 construct: purchased Carna Biosciences
How it was run: as §1

[30] = molecular target: T30, MINK (Homo sapiens, UniProt Q8N4C8)
T30 construct: purchased Carna Biosciences
How it was run: as §1

[31] = molecular target: T31, MAP4K2 (Homo sapiens, UniProt Q12851)
T31 construct: purchased Carna Biosciences
How it was run: as §1

[32] = molecular target: T32, TXK (Homo sapiens, UniProt P42681)
T32 construct: purchased Carna Biosciences
How it was run: as §1

[33] = molecular target: T33, COT_Cascade (Homo sapiens, UniProt P41279)
T33 construct: purchased Carna Biosciences
How it was run: as §1

[34] = molecular target: T34, CK1ε (Homo sapiens, UniProt P49674)
T34 construct: purchased Carna Biosciences
How it was run: as §1

[35] = molecular target: T35, p38α (Homo sapiens, UniProt Q16539)
T35 construct: purchased Carna Biosciences
How it was run: as §1

[36] = molecular target: T36, NPM1-ALK (Homo sapiens, UniProt P06748+Q9UM73)
T36 construct: purchased Carna Biosciences
How it was run: as §1

T14 sequence (P36888 27-993): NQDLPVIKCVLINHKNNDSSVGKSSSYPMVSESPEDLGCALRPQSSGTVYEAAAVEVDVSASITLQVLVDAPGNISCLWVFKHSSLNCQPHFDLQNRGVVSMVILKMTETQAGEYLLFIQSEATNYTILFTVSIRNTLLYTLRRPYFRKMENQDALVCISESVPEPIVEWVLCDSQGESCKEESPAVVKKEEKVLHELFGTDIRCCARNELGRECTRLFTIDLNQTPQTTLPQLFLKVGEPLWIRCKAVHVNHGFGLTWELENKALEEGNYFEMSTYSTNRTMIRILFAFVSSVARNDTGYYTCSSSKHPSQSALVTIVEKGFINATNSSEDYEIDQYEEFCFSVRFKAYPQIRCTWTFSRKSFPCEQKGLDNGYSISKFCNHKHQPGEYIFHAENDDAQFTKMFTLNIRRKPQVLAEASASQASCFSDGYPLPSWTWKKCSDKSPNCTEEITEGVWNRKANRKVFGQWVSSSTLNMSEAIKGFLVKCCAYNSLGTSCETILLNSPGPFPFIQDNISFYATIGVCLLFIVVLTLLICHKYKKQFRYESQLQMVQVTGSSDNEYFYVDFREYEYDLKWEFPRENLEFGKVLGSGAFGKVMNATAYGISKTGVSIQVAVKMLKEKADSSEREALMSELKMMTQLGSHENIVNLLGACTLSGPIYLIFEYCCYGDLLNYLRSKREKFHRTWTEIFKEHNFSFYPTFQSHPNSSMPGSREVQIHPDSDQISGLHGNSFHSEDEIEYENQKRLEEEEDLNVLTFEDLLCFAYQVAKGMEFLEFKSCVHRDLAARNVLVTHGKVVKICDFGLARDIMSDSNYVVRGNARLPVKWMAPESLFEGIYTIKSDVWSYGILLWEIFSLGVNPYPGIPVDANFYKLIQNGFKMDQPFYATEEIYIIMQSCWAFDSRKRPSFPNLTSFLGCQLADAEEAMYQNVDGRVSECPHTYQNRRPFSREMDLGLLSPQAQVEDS
T18 sequence (Q9H2G2 whole entry): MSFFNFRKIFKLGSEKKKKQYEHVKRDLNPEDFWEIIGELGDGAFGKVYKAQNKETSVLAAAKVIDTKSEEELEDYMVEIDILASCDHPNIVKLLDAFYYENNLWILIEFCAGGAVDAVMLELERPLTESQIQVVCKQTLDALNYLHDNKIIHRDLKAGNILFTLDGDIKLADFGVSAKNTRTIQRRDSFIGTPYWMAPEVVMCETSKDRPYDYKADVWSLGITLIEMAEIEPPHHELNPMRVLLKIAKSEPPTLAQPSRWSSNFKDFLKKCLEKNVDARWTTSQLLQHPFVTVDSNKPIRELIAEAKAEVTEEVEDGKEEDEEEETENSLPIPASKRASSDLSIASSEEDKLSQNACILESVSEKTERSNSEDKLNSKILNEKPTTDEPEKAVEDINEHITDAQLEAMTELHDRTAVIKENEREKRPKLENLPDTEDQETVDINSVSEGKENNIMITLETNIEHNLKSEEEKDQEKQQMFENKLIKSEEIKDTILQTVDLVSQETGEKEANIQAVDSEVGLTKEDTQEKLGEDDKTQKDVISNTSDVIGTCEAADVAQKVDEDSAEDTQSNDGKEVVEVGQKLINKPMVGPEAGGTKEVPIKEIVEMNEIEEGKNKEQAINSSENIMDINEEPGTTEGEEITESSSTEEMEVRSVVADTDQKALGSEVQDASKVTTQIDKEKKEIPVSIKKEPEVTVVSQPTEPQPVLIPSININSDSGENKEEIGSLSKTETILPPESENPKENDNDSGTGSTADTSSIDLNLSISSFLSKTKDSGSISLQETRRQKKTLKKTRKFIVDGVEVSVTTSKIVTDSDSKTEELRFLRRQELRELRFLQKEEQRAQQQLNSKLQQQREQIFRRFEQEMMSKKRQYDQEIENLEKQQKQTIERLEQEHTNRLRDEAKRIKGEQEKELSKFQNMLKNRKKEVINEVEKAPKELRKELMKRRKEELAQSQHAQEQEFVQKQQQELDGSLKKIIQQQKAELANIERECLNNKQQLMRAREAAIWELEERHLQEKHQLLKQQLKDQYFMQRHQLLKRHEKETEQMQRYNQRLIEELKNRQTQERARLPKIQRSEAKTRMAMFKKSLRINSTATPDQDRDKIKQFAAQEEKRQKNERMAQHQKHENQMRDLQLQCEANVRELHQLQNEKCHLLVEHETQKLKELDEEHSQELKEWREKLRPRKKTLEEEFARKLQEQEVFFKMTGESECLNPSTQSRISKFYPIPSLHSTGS
T15 sequence (P42684 whole entry): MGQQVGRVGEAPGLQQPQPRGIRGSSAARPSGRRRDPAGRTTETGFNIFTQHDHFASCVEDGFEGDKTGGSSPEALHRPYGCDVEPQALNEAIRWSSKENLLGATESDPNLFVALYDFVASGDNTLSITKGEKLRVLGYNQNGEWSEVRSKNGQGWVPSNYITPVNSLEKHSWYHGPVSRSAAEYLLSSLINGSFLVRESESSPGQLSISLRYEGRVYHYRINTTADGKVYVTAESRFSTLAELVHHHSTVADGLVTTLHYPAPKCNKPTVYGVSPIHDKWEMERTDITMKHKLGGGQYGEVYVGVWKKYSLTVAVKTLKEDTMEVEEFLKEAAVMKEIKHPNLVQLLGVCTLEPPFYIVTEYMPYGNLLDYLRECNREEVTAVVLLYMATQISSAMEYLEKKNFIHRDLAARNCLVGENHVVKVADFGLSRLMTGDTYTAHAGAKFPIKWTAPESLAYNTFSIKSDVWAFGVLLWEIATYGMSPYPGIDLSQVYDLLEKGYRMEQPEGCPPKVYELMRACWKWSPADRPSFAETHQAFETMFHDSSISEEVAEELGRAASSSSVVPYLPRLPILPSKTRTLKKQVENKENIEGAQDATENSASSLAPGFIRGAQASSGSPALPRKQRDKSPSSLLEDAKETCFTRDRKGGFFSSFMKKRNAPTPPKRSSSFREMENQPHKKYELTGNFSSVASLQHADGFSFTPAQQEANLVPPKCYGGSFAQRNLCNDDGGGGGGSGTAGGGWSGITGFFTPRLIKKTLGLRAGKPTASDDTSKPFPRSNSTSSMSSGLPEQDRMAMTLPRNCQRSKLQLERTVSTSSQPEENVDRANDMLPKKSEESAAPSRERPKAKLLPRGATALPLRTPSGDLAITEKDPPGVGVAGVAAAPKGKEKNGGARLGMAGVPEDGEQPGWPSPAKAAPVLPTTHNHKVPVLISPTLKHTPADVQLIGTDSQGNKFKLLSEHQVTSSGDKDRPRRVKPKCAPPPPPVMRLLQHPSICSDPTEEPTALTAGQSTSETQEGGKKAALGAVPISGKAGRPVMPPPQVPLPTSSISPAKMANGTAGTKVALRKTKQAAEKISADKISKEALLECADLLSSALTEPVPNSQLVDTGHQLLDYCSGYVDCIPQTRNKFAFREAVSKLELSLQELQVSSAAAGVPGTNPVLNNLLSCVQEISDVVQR
T28 sequence (P29317 24-976): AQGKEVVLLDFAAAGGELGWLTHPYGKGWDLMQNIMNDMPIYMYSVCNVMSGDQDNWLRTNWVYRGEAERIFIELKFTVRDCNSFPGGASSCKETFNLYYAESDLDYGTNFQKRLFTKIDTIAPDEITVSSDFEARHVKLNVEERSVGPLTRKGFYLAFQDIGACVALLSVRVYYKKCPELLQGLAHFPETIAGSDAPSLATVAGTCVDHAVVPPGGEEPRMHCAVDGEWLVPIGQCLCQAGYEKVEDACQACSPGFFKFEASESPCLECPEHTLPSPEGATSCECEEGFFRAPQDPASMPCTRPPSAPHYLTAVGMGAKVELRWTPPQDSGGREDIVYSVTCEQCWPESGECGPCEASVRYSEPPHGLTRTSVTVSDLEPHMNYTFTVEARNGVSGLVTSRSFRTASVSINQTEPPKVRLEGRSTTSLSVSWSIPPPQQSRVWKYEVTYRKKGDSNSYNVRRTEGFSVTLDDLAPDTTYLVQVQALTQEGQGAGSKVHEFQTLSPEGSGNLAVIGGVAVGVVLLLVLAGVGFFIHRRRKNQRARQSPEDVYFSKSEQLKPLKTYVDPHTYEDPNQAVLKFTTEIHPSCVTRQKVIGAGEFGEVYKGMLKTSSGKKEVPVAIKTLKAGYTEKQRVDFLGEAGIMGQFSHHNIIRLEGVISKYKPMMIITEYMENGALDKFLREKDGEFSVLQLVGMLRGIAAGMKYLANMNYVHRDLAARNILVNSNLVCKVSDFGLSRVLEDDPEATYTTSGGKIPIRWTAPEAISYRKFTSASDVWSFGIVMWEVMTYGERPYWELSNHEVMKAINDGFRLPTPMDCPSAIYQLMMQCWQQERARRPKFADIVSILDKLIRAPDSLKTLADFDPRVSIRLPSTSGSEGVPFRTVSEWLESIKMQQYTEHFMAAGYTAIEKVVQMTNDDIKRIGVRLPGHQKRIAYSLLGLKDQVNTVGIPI
T27 sequence (P19525 whole entry): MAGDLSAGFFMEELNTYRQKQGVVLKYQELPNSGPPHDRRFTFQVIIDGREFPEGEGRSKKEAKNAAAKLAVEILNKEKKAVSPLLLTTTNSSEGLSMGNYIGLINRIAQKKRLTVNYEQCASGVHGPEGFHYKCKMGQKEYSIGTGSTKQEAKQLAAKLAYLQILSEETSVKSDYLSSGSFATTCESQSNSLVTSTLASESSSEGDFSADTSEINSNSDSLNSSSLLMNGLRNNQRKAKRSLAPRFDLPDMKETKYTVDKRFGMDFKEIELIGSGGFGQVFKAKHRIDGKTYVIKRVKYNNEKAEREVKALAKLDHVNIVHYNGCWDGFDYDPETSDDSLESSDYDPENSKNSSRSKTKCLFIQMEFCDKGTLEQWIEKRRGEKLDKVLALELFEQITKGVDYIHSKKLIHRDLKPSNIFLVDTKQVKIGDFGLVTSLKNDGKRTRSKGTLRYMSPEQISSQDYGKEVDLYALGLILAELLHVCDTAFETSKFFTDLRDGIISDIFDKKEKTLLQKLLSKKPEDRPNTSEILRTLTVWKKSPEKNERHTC

Structure (SMILES): [H]/N=C1/NC(=O)C(=Cc2ccc3c(c2)CCO3)S1 [CaNDY, (Z)-5-[(2,3-dihydrobenzofuran-5-yl)methylene]-2-iminothiazolidin-4-one]
- remaining activity at 1 µM [1]: 91.9%
- remaining activity at 1 µM [2]: 102%
- %Activity [3]: 100.9%
- remaining activity at 1 µM [4]: 93.6%
- remaining activity at 1 µM [5]: 108%
- %Activity [6]: 98.1%
- remaining activity at 1 µM [7]: 95.5%
- remaining activity at 1 µM [8]: 100%
- remaining activity at 1 µM [9]: 92.2%
- remaining activity at 1 µM [10]: 88.6%
- %Activity [11]: 104.8%
- remaining activity at 1 µM [12]: 105%
- remaining activity at 1 µM [13]: 110%
- remaining activity at 1 µM [14]: 101%
- remaining activity at 1 µM [15]: 98.8%
- remaining activity at 1 µM [16]: 95%
- remaining activity at 1 µM [17]: 88.9%
- remaining activity at 1 µM [18]: 96.9%
- remaining activity at 1 µM [19]: 100%
- remaining activity at 1 µM [20]: 96.2%
- remaining activity at 1 µM [21]: 100%
- %Activity [22]: 93.5%
- remaining activity at 1 µM [23]: 60%
- %Activity [24]: 98.1%
- remaining activity at 1 µM [25]: 104%
- remaining activity at 1 µM [26]: 103%
- %Activity [27]: 95.4%
- remaining activity at 1 µM [28]: 100%
- %Activity [29]: 99.0%
- remaining activity at 1 µM [30]: 83.7%
- remaining activity at 1 µM [31]: 76.7%
- remaining activity at 1 µM [32]: 96.8%
- remaining activity at 1 µM [33]: 72.9%
- remaining activity at 1 µM [34]: 89.4%
- %Activity [35]: 95.9%
- remaining activity at 1 µM [36]: 97.8%
